{"source": "paper PMC8303988", "about": "“Cholate Disrupts Regulatory Functions of Cytochrome c Oxidase” (Cells, 2021)", "system": "T1, cholate-CytOx; isolated cytochrome c oxidase from bovine heart", "T1 construct": "gene MT-CO1; with Cytochrome c oxidase subunit 1; Cytochrome c oxidase subunit 2; Cytochrome c oxidase subunit 3; Cytochrome c oxidase subunit 5A, mitochondrial; Cytochrome c oxidase subunit 5B, mitochondrial; Cytochrome c oxidase subunit 6A2, mitochondrial; Cytochrome c oxidase subunit 6B1; Cytochrome c oxidase subunit 6C; Cytochrome c oxidase subunit 7A1, mitochondrial; Cytochrome c oxidase subunit 7B, mitochondrial; Cytochrome c oxidase subunit 7C, mitochondrial; Cytochrome c oxidase subunit 8B, mitochondrial", "assay": "UV/VIS absorption spectroscopy, displacement of bound cholate by ADP", "assay_type": "binding, Bos taurus", "settings": "0 °C, pH 7.4; cholate bound during purification; nucleotide sites"}
{"smiles": "C[C@H](CCC(=O)O)[C@H]1CC[C@H]2[C@@H]3[C@H](O)C[C@@H]4C[C@H](O)CC[C@]4(C)[C@H]3C[C@H](O)[C@]12C", "note": "[cholate]", "values": [{"measurement": "UV/VIS absorption spectroscopy, displacement of bound cholate by ADP", "result": "exchange of cholate by ADP is a very slow process with a half-time of about"}]}
